Reference: patent US8309718B2, “4-pyrazolyl-N-arylpyrimidin-2-amines and 4-pyrazolyl-N-heteroarylpyrimidin-2-amines as janus kinase inhibitors” (Incyte Corporation, priority 2007, dated 2012)

target: T1, human JAK2 (Homo sapiens, UniProt O60674); assay: In vitro JAK kinase assay (HTRF, phosphorylation of biotinylated peptide); type: biochemical; details: catalytic domain a.a. 828-1132, 30 μM ATP, 500 nM peptide, room temperature 1 hr; read-out: JAK-2 IC50
T1 construct: JAK2 (a.a. 828-1132); His tag (N); made in house; host or cells: insect cells (baculovirus)
Procedure, shortened: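 His-tagged human JAK2 catalytic domain (a.a. 828-1132), baculovirus/insect-cell expressed; phosphorylation of 500 nM biotinylated peptide at 30 μM ATP in 50 mM Tris pH 7.8, 100 mM NaCl, 5 mM DTT, 0.01% BSA. 1 h at room temperature, EDTA stop, HTRF read (Eu-Py20/SA-APC); IC50.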

T1 sequence (O60674 828-1132): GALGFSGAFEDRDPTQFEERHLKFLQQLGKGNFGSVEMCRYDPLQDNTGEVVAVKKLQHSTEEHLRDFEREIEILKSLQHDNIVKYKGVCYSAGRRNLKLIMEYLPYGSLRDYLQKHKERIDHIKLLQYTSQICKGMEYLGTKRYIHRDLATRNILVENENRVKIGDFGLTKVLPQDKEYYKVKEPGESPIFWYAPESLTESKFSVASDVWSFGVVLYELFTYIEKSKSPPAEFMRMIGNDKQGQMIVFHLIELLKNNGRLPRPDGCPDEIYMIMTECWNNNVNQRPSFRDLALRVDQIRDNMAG

IC50, < 100 nM:
N#CCC(C1CCCC1)n1cc(-c2ccnc(Nc3cccc(C(=O)NCC4CCOCC4)c3)n2)cn1 (racemic) [Example 153, 3-(4-(1-(2-cyano-1-cyclopentylethyl)-1H-pyrazol-4-yl)pyrimidin-2-ylamino)-N-((tetrahydro-2H-pyran-4-yl)methyl)benzamide]
CN(C)C1CCN(C(=O)c2ccc(Nc3nccc(-c4cnn(C(CC#N)C5CC5)c4)n3)cc2)C1 (mixture of isomers) [Example 270, 3-cyclopropyl-3-(4-(2-(4-(3-(dimethylamino)pyrrolidine-1-carbonyl)phenylamino)pyrimidin-4-yl)-1H-pyrazol-1-yl)propanenitrile]
CCS(=O)(=O)N1CC(CC#N)(n2cc(-c3ccnc(Nc4ccc(C(=O)N5CCN(C(C)=O)CC5)cc4)n3)cn2)C1 [Example 281, 2-(3-(4-(2-(4-(4-acetylpiperazine-1-carbonyl)phenylamino)pyrimidin-4-yl)-1H-pyrazol-1-yl)-1-(ethylsulfonyl)azetidin-3-yl)acetonitrile]
COC[C@H]1CCCN1CC(=O)Nc1ccc(Nc2nccc(-c3cnn(C(CC#N)C4CCCC4)c3)n2)cc1 (mixture of isomers) [Example 209, N-(4-(4-(1-(2-cyano-1-cyclopentylethyl)-1H-pyrazol-4-yl)pyrimidin-2-ylamino)phenyl)-2-((R)-2-(methoxymethyl)pyrrolidin-1-yl)acetamide]
COC1CCN(C(=O)c2ccc(Nc3nccc(-c4cnn(C5(CC#N)CC(C#N)C5)c4)n3)cc2)CC1 (single isomer, unassigned) [Example 295, 3-(cyanomethyl)-3-(4-(2-(4-(4-methoxypiperidine-1-carbonyl)phenylamino)pyrimidin-4-yl)-1H-pyrazol-1-yl)cyclobutanecarbonitrile]
N#CCC(C1CCCC1)n1cc(-c2ccnc(Nc3ccc(-n4cccn4)cc3)n2)cn1 (racemic) [Example 34, 3-(4-(2-(4-(1H-pyrazol-1-yl)phenylamino)pyrimidin-4-yl)-1H-pyrazol-1-yl)-3-cyclopentylpropanenitrile]
CN(C)C1CCN(C(=O)c2ccc(Nc3nccc(-c4cnn(C(CC#N)C5CCCC5)c4)n3)cc2)C1 (mixture of isomers) [Example 230, 3-cyclopentyl-3-(4-(2-(4-(3-(dimethylamino)pyrrolidine-1-carbonyl)phenylamino)pyrimidin-4-yl)-1H-pyrazol-1-yl)propanenitrile]
CO[C@H]1CCN(C(=O)c2ccc(Nc3nccc(-c4cnn(C(CC#N)C5CCCC5)c4)n3)cc2)C1 (mixture of isomers) [Example 226, 3-cyclopentyl-3-(4-(2-(4-((S)-3-methoxypyrrolidine-1-carbonyl)phenylamino)pyrimidin-4-yl)-1H-pyrazol-1-yl)propanenitrile]
Cc1nccc(-c2cccc(Nc3nccc(-c4cnn(C(CC#N)C5CCCC5)c4)n3)c2)n1 (racemic) [Example 99, 3-cyclopentyl-3-(4-(2-(3-(2-methylpyrimidin-4-yl)phenylamino)pyrimidin-4-yl)-1H-pyrazol-1-yl)propanenitrile]
CCOC(=O)N1CCC(NC(=O)c2ccc(Nc3nccc(-c4cnn(C(CC#N)C5CCCC5)c4)n3)cc2)CC1 (racemic) [Example 231, Ethyl 4-(4-(4-(1-(2-cyano-1-cyclopentylethyl)-1H-pyrazol-4-yl)pyrimidin-2-ylamino)benzamido)piperidine-1-carboxylate]
Cn1ccc(S(=O)(=O)Nc2cccc(Nc3nccc(-c4cnn(C(CC#N)C5CCCC5)c4)n3)c2)n1 (racemic) [Example 201, N-(3-(4-(1-(2-cyano-1-cyclopentylethyl)-1H-pyrazol-4-yl)pyrimidin-2-ylamino)phenyl)-1-methyl-1H-pyrazole-3-sulfonamide]
COCC(C)NC(=O)c1cccc(Nc2nccc(-c3cnn(C(CC#N)C4CCCC4)c3)n2)c1 (mixture of isomers) [Example 113, 3-(4-(1-(2-cyano-1-cyclopentylethyl)-1H-pyrazol-4-yl)pyrimidin-2-ylamino)-N-(1-methoxypropan-2-yl)benzamide]
Cc1nccc(-c2cccc(Nc3nccc(-c4cnn(C5(CC#N)CN(S(=O)(=O)C6CC6)C5)c4)n3)c2)n1 [Example 20, 2-(1-(cyclopropylsulfonyl)-3-(4-(2-(3-(2-methylpyrimidin-4-yl)phenylamino)pyrimidin-4-yl)-1H-pyrazol-1-yl)azetidin-3-yl)acetonitrile]
N#CCC1(n2cc(-c3ccnc(Nc4ccc(N5CCOCC5=O)cc4)n3)cn2)CC(C#N)C1 (single isomer, unassigned) [Example 338, 3-(cyanomethyl)-3-[4-(2-{[4-(3-oxomorpholin-4-yl)phenyl]amino}pyrimidin-4-yl)-1H-pyrazol-1-yl]cyclobutanecarbonitrile]
N#CCC(C1CC1)n1cc(-c2ccnc(Nc3ccc(C(=O)N4CCOCC4)cc3)n2)cn1 (racemic) [Example 260, 3-cyclopropyl-3-(4-(2-(4-(morpholine-4-carbonyl)phenylamino)pyrimidin-4-yl)-1H-pyrazol-1-yl)propanenitrile]
N#CCC1(n2cc(-c3ccnc(Nc4ccc(C(=O)N5[C@@H]6CC[C@H]5C[C@@H](O)C6)cc4)n3)cn2)CC(C#N)C1 (stereo partly drawn) [Example 300, 3-(cyanomethyl)-3-(4-(2-(4-((3-endo)-3-hydroxy-8-azabicyclo[3.2.1]octane-8-carbonyl)phenylamino)pyrimidin-4-yl)-1H-pyrazol-1-yl)cyclobutanecarbonitrile]
N#CCC(C1CCCC1)n1cc(-c2ccnc(Nc3ccc(C(=O)N4[C@@H]5CC[C@H]4C[C@@H](O)C5)cc3)n2)cn1 (mixture of isomers) [Example 215, 3-cyclopentyl-3-(4-(2-(4-((3-endo)-3-hydroxy-8-azabicyclo[3.2.1]octane-8-carbonyl)phenylamino)pyrimidin-4-yl)-1H-pyrazol-1-yl)propanenitrile]
N#CCC(C1CCCC1)n1cc(-c2ccnc(Nc3ccc(NS(=O)(=O)c4ccc(Cl)s4)cc3)n2)cn1 (racemic) [Example 196, 5-chloro-N-(4-(4-(1-(2-cyano-1-cyclopentylethyl)-1H-pyrazol-4-yl)pyrimidin-2-ylamino)phenyl)thiophene-2-sulfonamide]
N#CCC1(n2cc(-c3ccnc(Nc4ccc(C(=O)N5CC[C@@H](O)C5)cc4)n3)cn2)CC(C#N)C1 (single isomer, unassigned) [Example 290]
N#CCC(C1CCCC1)n1cc(-c2ccnc(Nc3cccc(NC(=O)CN4CC[C@@H](O)C4)c3)n2)cn1 (mixture of isomers) [Example 237, N-(3-(4-(1-(2-cyano-1-cyclopentylethyl)-1H-pyrazol-4-yl)pyrimidin-2-ylamino)phenyl)-2-((R)-3-hydroxypyrrolidin-1-yl)acetamide]
CS(=O)(=O)CS(=O)(=O)Nc1ccc(Nc2nccc(-c3cnn(C(CC#N)C4CCCC4)c3)n2)cc1 (racemic) [Example 184, N-(4-(4-(1-(2-cyano-1-cyclopentylethyl)-1H-pyrazol-4-yl)pyrimidin-2-ylamino)phenyl)-1-(methylsulfonyl)methanesulfonamide]
COC[C@H]1CCCN1C(=O)c1cccc(Nc2nccc(-c3cnn(C(CC#N)C4CCCC4)c3)n2)c1 (mixture of isomers) [Example 162, 3-cyclopentyl-3-(4-(2-(3-((R)-2-(methoxymethyl)pyrrolidine-1-carbonyl)phenylamino)pyrimidin-4-yl)-1H-pyrazol-1-yl)propanenitrile]
N#CCC1(n2cc(-c3ccnc(Nc4ccc(OCCN5CCCC5)cc4)n3)cn2)CC(C#N)C1 (single isomer, unassigned) [Example 307, 3-(cyanomethyl)-3-[4-(2-{[4-(2-pyrrolidin-1-ylethoxy)phenyl]amino}pyrimidin-4-yl)-1H-pyrazol-1-yl]cyclobutanecarbonitrile]
N#CCC(C1CCCC1)n1cc(-c2ccnc(Nc3cccc(NC(=O)CN4CCNC(=O)C4)c3)n2)cn1 (racemic) [Example 238, N-(3-(4-(1-(2-cyano-1-cyclopentylethyl)-1H-pyrazol-4-yl)pyrimidin-2-ylamino)phenyl)-2-(3-oxopiperazin-1-yl)acetamide]
N#CCC(C1CCCC1)n1cc(-c2ccnc(Nc3cccc(C(=O)N4CCC(O)(Cc5ccccc5)CC4)c3)n2)cn1 (racemic) [Example 151, 3-(4-(2-(3-(4-benzyl-4-hydroxypiperidine-1-carbonyl)phenylamino)pyrimidin-4-yl)-1H-pyrazol-1-yl)-3-cyclopentylpropanenitrile]
N#CCC(C1CCN(S(=O)(=O)c2ccccc2)CC1)n1cc(-c2ccnc(Nc3ccc(N4CCOCC4)cc3)n2)cn1 (racemic) [Example 25, 3-(4-(2-(4-morpholinophenylamino)pyrimidin-4-yl)-1H-pyrazol-1-yl)-3-(1-(phenylsulfonyl)piperidin-4-yl)propanenitrile]
N#CCC(C1CCCC1)n1cc(-c2ccnc(Nc3ccc(N4CCCOC4=O)cc3)n2)cn1 (racemic) [Example 106, 3-cyclopentyl-3-(4-(2-(4-(2-oxo-1,3-oxazinan-3-yl)phenylamino)pyrimidin-4-yl)-1H-pyrazol-1-yl)propanenitrile]
